Measurements reported in ChEMBL document CHEMBL1909046, “DrugMatrix in vitro pharmacology data”.

Assays:
[1] = biological target: Matrix metalloproteinase-9 (Homo sapiens, UniProt P14780); assay type: cell-based;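 note: inhibition of isolated MMP-9 enzyme activity toward a synthetic peptide substrate, from the DrugMatrix protease screening panel; in other assays of this panel Not Active means under 50% inhibition at 10 µM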
[2] = biological target: 5-hydroxytryptamine receptor 1B (Rattus norvegicus, UniProt P28564); assay type: cell membranes, Wistar, Cerebral cortex, Membrane; note: in other assays of this panel Not Active means under 50% inhibition at 10 µM
Chain of 5-hydroxytryptamine receptor 1B (P28564 whole entry): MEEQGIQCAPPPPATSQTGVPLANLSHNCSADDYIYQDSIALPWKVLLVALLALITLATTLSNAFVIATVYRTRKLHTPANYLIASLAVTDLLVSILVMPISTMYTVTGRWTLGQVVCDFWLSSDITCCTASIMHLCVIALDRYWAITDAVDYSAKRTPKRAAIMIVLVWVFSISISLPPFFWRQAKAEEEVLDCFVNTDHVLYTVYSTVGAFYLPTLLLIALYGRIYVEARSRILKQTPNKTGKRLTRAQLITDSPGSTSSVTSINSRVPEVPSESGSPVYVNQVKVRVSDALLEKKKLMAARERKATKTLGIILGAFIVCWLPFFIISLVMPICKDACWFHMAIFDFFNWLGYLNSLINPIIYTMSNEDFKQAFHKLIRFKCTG

Calcitonin receptor = biological target: T1, Calcitonin receptor (Homo sapiens, UniProt P30988); assay type: cell membranes, Membrane; details: t47d; note: in other assays of this panel Not Active means under 50% inhibition at 10 µM
T1 sequence (P30988 whole entry): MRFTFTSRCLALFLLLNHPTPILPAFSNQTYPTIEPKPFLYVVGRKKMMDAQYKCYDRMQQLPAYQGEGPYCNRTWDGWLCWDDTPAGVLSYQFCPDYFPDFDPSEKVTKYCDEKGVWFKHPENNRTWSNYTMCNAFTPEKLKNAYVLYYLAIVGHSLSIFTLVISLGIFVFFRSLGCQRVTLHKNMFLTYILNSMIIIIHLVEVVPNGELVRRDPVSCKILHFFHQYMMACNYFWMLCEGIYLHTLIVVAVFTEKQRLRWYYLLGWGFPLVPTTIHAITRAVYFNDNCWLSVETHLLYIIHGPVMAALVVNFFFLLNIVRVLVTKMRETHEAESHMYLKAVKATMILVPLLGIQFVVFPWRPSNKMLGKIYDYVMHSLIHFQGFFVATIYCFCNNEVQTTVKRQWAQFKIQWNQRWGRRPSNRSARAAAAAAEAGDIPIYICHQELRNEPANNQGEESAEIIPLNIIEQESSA

[3] = DRUGMATRIX: GABAA, Muscimol, Central radioligand binding (ligand: [3H] Muscimol); assay type: cell membranes, Rattus norvegicus, Wistar, Brain, Membrane; details: Not Active = under 50% inhibition at 10 µM
[4] = DRUGMATRIX: Platelet-Derived Growth Factor (PDGF) radioligand binding (ligand: [125I] PDGF); assay type: cell-based; details: nih3t3; Not Active = under 50% inhibition at 10 µM
[5] = DRUGMATRIX: Calcium Channel Type L, Phenylalkylamine radioligand binding (ligand: [3H] (-)-Desmethoxyverapamil (D-888)); assay type: cell membranes, Rattus norvegicus, Wistar, Brain, Membrane; details: Not Active = under 50% inhibition at 10 µM
[6] = biological target: Sodium-dependent dopamine transporter (Homo sapiens, UniProt Q01959); assay: DRUGMATRIX: Dopamine Transporter radioligand binding (ligand: [125I] RTI-55); assay type: cell membranes, CHO-K1, Membrane; details: cho-k1; Not Active = under 50% inhibition at 10 µM
Chain of Sodium-dependent dopamine transporter (Q01959 whole entry): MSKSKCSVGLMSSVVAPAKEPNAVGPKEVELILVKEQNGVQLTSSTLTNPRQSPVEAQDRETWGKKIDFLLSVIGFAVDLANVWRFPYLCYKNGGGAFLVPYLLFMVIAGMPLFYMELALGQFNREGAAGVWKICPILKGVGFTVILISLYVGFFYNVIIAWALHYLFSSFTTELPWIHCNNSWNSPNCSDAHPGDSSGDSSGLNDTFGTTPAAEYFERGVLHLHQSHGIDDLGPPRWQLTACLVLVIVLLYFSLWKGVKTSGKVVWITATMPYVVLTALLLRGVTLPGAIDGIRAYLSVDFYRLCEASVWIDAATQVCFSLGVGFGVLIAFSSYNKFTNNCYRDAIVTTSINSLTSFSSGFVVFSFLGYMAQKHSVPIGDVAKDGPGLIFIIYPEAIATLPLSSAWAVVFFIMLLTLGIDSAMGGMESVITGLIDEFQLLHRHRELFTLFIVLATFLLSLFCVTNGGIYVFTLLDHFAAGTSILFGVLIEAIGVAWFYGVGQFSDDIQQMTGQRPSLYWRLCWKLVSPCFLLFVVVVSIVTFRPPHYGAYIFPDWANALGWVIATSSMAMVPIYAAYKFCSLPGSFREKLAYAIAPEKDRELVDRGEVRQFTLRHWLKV

Chain of Matrix metalloproteinase-9 (P14780 whole entry): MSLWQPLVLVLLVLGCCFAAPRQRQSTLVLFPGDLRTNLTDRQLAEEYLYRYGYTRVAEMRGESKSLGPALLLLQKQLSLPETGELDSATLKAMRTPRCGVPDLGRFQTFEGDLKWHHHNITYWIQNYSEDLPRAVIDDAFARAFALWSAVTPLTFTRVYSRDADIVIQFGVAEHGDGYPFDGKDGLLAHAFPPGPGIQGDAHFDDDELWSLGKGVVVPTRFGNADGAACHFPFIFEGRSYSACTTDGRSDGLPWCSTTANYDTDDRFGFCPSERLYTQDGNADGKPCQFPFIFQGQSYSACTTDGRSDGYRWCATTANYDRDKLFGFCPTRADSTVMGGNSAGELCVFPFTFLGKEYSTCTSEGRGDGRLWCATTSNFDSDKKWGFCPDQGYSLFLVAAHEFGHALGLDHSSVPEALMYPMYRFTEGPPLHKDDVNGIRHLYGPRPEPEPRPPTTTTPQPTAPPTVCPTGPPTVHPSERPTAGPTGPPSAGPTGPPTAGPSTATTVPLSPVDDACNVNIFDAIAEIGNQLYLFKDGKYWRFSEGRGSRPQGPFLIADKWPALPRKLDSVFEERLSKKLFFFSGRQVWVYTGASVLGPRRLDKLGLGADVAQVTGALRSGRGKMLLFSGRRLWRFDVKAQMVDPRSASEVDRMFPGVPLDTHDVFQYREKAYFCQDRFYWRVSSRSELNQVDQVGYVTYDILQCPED

C[N+]1(C)[C@@H]2C[C@@H](OC(=O)[C@H](CO)c3ccccc3)C[C@H]1[C@@H]1O[C@@H]12.[Br-] [METHSCOPOLAMINE BROMIDE]
Not Active: IC50 [1] | IC50 [2] | IC50 (Calcitonin receptor) | IC50 [3] | Ki [3] | IC50 [4] | Ki [4] | IC50 [5] | Ki [5] | IC50 [6]

CCN(CC)CCNC(=O)c1cc(Cl)c(N)cc1OC [METOCLOPRAMIDE]
Not Active: IC50 [1] | IC50 [2] | IC50 (Calcitonin receptor) | IC50 [3] | Ki [3] | IC50 [4] | Ki [4] | IC50 [5] | Ki [5] | IC50 [6]

CC(=O)O[C@]1(C(C)=O)CC[C@H]2[C@@H]3C[C@H](C)C4=CC(=O)CC[C@]4(C)[C@H]3CC[C@@]21C [MEDROXYPROGESTERONE ACETATE]
Not Active: IC50 [1] | IC50 [2] | IC50 (Calcitonin receptor) | IC50 [3] | Ki [3] | IC50 [4] | Ki [4] | IC50 [5] | Ki [5] | IC50 [6]

Cc1ccnc(NS(=O)(=O)c2ccc(N)cc2)n1 [SULFAMERAZINE]
Not Active: IC50 [1] | IC50 [2] | IC50 (Calcitonin receptor) | IC50 [3] | Ki [3] | IC50 [4] | Ki [4] | IC50 [5] | Ki [5] | IC50 [6]

O=C(c1ccccc1)c1ccc2n1CCC2C(=O)O (stereo not given) [KETOROLAC]
Not Active: IC50 [1] | IC50 [2] | IC50 (Calcitonin receptor) | IC50 [3] | Ki [3] | IC50 [4] | Ki [4] | IC50 [5] | Ki [5] | IC50 [6]

Cc1nnc(NS(=O)(=O)c2ccc(N)cc2)s1 [SULFAMETHIZOLE]
Not Active: IC50 [1] | IC50 [2] | IC50 (Calcitonin receptor) | IC50 [3] | Ki [3] | IC50 [4] | Ki [4] | IC50 [5] | Ki [5] | IC50 [6]

CCC(C)(C)C(=O)O[C@H]1C[C@@H](C)C=C2C=C[C@H](C)[C@H](CC[C@@H]3C[C@@H](O)CC(=O)O3)[C@H]21 [SIMVASTATIN]
Not Active: IC50 [1] | IC50 [2] | IC50 (Calcitonin receptor) | IC50 [3] | Ki [3] | IC50 [4] | Ki [4] | IC50 [5] | Ki [5] | IC50 [6]

Oc1ccc(/C=C/c2cc(O)cc(O)c2)cc1 [RESVERATROL]
Not Active: IC50 [1] | IC50 [2] | IC50 (Calcitonin receptor) | IC50 [3] | Ki [3] | IC50 [4] | Ki [4] | IC50 [5] | Ki [5] | IC50 [6]

Cc1cnc(NC(=O)C2=C(O)c3ccccc3S(=O)(=O)N2C)s1 [MELOXICAM]
Not Active: IC50 [1] | IC50 [2] | IC50 (Calcitonin receptor) | IC50 [3] | Ki [3] | IC50 [4] | Ki [4] | IC50 [5] | Ki [5] | IC50 [6]

CC[C@H](C)[C@@H](CO[C@@H](Cc1ccccc1)C(=O)N[C@@H](CCS(C)(=O)=O)C(=O)OC(C)C)NC[C@@H](N)CS
Not Active: IC50 [1] | IC50 [2] | IC50 (Calcitonin receptor) | IC50 [3] | Ki [3] | IC50 [4] | Ki [4] | IC50 [5] | Ki [5] | IC50 [6]

O=C1CC[C@@]2(O)[C@H]3Cc4ccc(O)c5c4[C@@]2(CCN3CC2CC2)[C@H]1O5 [NALTREXONE]
Not Active: IC50 [1] | IC50 [2] | IC50 (Calcitonin receptor) | IC50 [3] | Ki [3] | IC50 [4] | Ki [4] | IC50 [5] | Ki [5] | IC50 [6]

C=CCc1ccc2c(c1)OCO2 [SAFROLE]
Not Active: IC50 [1] | IC50 [2] | IC50 (Calcitonin receptor) | IC50 [3] | Ki [3] | IC50 [4] | Ki [4] | IC50 [5] | Ki [5] | IC50 [6]

O=[As][O-].[Na+] [SODIUM ARSENITE]
Not Active: IC50 [1] | IC50 [2] | IC50 (Calcitonin receptor) | IC50 [3] | Ki [3] | IC50 [4] | Ki [4] | IC50 [5] | Ki [5] | IC50 [6]

Cc1cn([C@H]2C=C[C@@H](CO)O2)c(=O)[nH]c1=O [STAVUDINE]
Not Active: IC50 [1] | IC50 [2] | IC50 (Calcitonin receptor) | IC50 [3] | Ki [3] | IC50 [4] | Ki [4] | IC50 [5] | Ki [5] | IC50 [6]

COC(=O)Nc1nc2ccc(C(=O)c3ccccc3)cc2[nH]1 [MEBENDAZOLE]
Not Active: IC50 [1] | IC50 [2] | IC50 (Calcitonin receptor) | IC50 [3] | Ki [3] | IC50 [4] | Ki [4] | IC50 [5] | Ki [5] | IC50 [6]

CC[C@H](C)C(=O)O[C@H]1CCC=C2C=C[C@H](C)[C@H](CC[C@@H]3C[C@@H](O)CC(=O)O3)[C@H]21 [MEVASTATIN]
Not Active: IC50 [1] | IC50 [2] | IC50 (Calcitonin receptor) | IC50 [3] | Ki [3] | IC50 [4] | Ki [4] | IC50 [5] | Ki [5] | IC50 [6]

O=C(OC[C@H]1O[C@@H](OC(=O)c2cc(O)c(O)c(OC(=O)c3cc(O)c(O)c(O)c3)c2)[C@H](OC(=O)c2cc(O)c(O)c(OC(=O)c3cc(O)c(O)c(O)c3)c2)[C@@H](OC(=O)c2cc(O)c(O)c(OC(=O)c3cc(O)c(O)c(O)c3)c2)[C@@H]1OC(=O)c1cc(O)c(O)c(OC(=O)c2cc(O)c(O)c(O)c2)c1)c1cc(O)c(O)c(OC(=O)c2cc(O)c(O)c(O)c2)c1 [TANNIC ACID]
Not Active: IC50 [1] | IC50 [2] | IC50 (Calcitonin receptor) | IC50 [3] | Ki [3] | IC50 [4] | Ki [4] | IC50 [5] | Ki [5] | IC50 [6]
